Results from patent publication US4870002A, “Method of prevention of oxidative injury to cells” (priority 1985, dated 1989).
Read-outs that look alike come from different tables or passages of the source.

Experiments:
[1] = test system: Con A-Lu-BSA labeled pig RBCs; experiment: Chemiluminescence of Con A-Lu-BSA labeled pig RBCs with exogenous hydrogen peroxide; assay type: cell-based
Experimental: The luminol-bovine serum albumin (Lu-BSA) complex was made by mixing 2 mg luminol (5-amino-2, 3-dihydrophthalazine-1,4-dione), 0.2 ml of 2 mg BSA/ml PBS (pH 6.9), and 1.6 ml of PBS, pH 6.9. The preparation was then passed through a 0.22 μm nitrocellulose filter to remove insoluble luminol. Next, 0.2 ml of 2 mg Con A/ml of PBS, pH 6.9, was added to the filtrate. After gentle mixing, 10 μl of 25% glutaraldehyde were added. The solution was incubated in the refrigerator for 1 hour. To stop the conjugation, 100 mg of glycine was added to the solution. The solution was then pressed through a 48 ml column of dextran gel filtration beads equilibrated with PBS, pH 6.9. The gel exclusion size was greater than 5000 for globular molecules. The fractions were collected and tested for luminescent labeling activity.
One ml of supernatant of each 10 ml aliquot of 1:20 diluted RBCs was replaced with 1 ml of Con A-Lu-BSA solution as previously described. The preparation was incubated for 15 min. at 37° C. in a water-jacketedcell culture incubator. The cells were then pelleted in a clinical centrifuge, resuspended in PBS, and washed in the same manner two additional times. The washed cells were maintained at 4° C. until used the same day of preparation.
Following exposure to chemical or physical stressors, 100 μl of the RBC suspension was added to 500 μl of PBS, pH 7.4, containing 0.3% hydrogen peroxide, in a scintillation vial. To activate the sample, 100 μl of 0.1N NaOH were added to the vial in place in an ATP photometer (Integrating ATP Photometer Model 3000, Science Applications, San Diego, California 92121) The photometer was set to a dark count of 1 count/30 second at a sensitivity of 600 at room temperature (approximately 23° C.). All counts followed a 5 second delay period to allow for stabilization of the photomultiplier. The counts are reported as counts/30 sec.
All essays were run at room temperature. The post-collection age of those cells was 11-18 days and the cells were used the day of labeling. […] Pyruvate (1.43 mM), an autoxidizable substrate, doubled the CL of labeled cells.

[2] = test system: porcine RBCs; experiment: Nonspecific binding of Lu-BSA to porcine RBCs (base-activated chemiluminescence); assay type: cell-based, pig; settings: for activation at 1490 µM / inhibition at 1490 µM: Sus scrofa; for activation at 1490 µM: read-out: Percent difference from control
Experimental: Blood was collected from Landrace-Duroc swine from a closed herd. Pigs from this herd had previously expressed episodes of porcine stress syndrome (malignant hyperthermia) following halothane anesthesia. The blood was collected into acidic citrated dextrose solution in standard blood bags. The blood was diluted 1:10 in phosphate (0.1M) buffered saline (PBS), pH 7.4, in 10 ml aliquots, centrifuged in a clinical centrifuge, and the erythrocytes were resuspended in fresh PBS. The cells were stored at 4° C. until used in the various assays. The post-collection chronological age of the RBCs used for a particular assay is noted in the results for each assay. The cells were counted in an automated cell counter (Coulter ZBI, Coulter Electronics, Inc., Hialeah, Fla. 33010). Nonspecific binding of Lu-BSA to porcine RBCs was measured following treatment with hydrogen peroxide, pyruvate, and/or 3-amino-L-tyrosine at 4°, 37°, or 45° C. The exposure times for those agents were 15 min, 30 min, or 72 hours. The reagents were removed by centrifugation. Three binding protocols were followed: (1) 0.25 ml of 1:20 RBCs (19 days post collection) were incubated with 0.25 ml of 1 mg/ml Lu-BSA in PBS, pH 6.9, for 30 min at 37° C. and washed (Table 1); (2) 0.05 ml of packed RBCs (less than 24 hours post collection) were resuspended in 0.2 ml of the Lu-BSA solution and incubated overnight at 4° C. […] The cells in all three protocols were washed once in PBS, pH 7.4, and resuspended in PBS to final dilutions of 1:20 for (1) and 1:30 for (2) and (3). Following this preparation, 100 μl of each cell suspension were added to 500 μl of PBS, pH 7.4, in a scintillation vial. The vial was placed in the photometer and the solution was activated by the addition of 100 μl 0.1N NaOH. The settings for the photometer were as previously described for the Con A-Lu-BSA.

[3] = target: T1, horseradish peroxidase (Armoracia rusticana, UniProt P00433); experiment: Inhibition of horseradish peroxidase; assay type: biochemical; settings: read-out: K1
T1 sequence (P00433 31-338 limits assumed): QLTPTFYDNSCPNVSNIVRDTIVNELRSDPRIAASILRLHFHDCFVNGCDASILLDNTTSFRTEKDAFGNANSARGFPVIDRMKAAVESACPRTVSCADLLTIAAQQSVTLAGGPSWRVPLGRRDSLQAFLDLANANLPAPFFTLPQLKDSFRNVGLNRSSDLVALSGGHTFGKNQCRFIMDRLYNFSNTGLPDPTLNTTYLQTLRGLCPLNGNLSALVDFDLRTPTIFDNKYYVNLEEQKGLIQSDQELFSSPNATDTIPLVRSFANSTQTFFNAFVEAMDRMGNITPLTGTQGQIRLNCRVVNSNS

[4] = test system: T cell (spleen) peroxidase; experiment: Inhibition of T cell (spleen) peroxidase activity; assay type: biochemical
[5] = 1.49 mM preincubation and pyruvate 1.33 mM

**Q.** With Nc1cc(C[C@H](N)C(=O)O)ccc1O [3-aminotyrosine, 3-amino-L-tyrosine] as the compound, how does the “CL (30 sec)” value ([1]; 160 μM) read?
**A.** The value was 5,430 ± 1,266 counts/30 sec.

**Q.** What about the “CL (30 sec)” value ([1]; 1.44 mM) of the same compound?
**A.** The value was 844 ± 165 counts/30 sec.

**Q.** And the activity at 160 µM ([1]; Sus scrofa, Erythrocyte, 160 μM, read-out: Percent control)?
**A.** The activity at 160 µM was 18%.

**Q.** And the activity at 1440 µM ([1]; Sus scrofa, Erythrocyte, 1.44 mM, read-out: Percent control)?
**A.** Its activity at 1440 µM is 3%.

**Q.** What about the activity at 11500 µM ([1]; Sus scrofa, Erythrocyte, pretreatment 11.5 mM, 30 min at room temperature, read-out: Percent control) of the same compound?
**A.** Its activity at 11500 µM is 74%.

**Q.** What about the inhibition at 160 µM ([1]; Sus scrofa, 160 μM, read-out: inhibition of CL of labeled RBCs) of the same compound?
**A.** The inhibition at 160 µM was 82%.

**Q.** What about the inhibition at 1440 µM ([1]; Sus scrofa, 1.44 mM, read-out: inhibition of CL of labeled RBCs) of the same compound?
**A.** Its inhibition at 1440 µM is 97%.

**Q.** What about the inhibition at 1440 µM ([1]; Sus scrofa, 1.44 mM, read-out: inhibition of the natural CL) of the same compound?
**A.** Its inhibition at 1440 µM is 94%.

**Q.** And the inhibition at 11500 µM ([1]; Sus scrofa, pretreatment of labeled cells with 11.5 mM, 30 min at room temperature, read-out: inhibition of CL)?
**A.** Its inhibition at 11500 µM is 26%.

**Q.** And the “CL (30 sec)” value ([1]; pretreatment 11.5 mM, 30 min at room temperature)?
**A.** Its value is 22,457 ± 2,128 counts/30 sec.

**Q.** And the “CL (counts/30 s)” value [2, 5]?
**A.** Its value is 964 ± 230 counts/30 s.

**Q.** What about the “Percent difference from control” value [2, 5] of the same compound?
**A.** The value was 9%.

**Q.** What about the “Lu-BSA binding above the 37° C. control” value ([2]; 1.49 mM with hydrogen peroxide 11.7 mM, 37° C.) of the same compound?
**A.** The value was at most 14%.

**Q.** And the “CL (30 s)” value ([2]; 1.49 mM with hydrogen peroxide 11.7 mM, 37° C., 30 min)?
**A.** The value was 663 ± 145 counts/30 s.

**Q.** What about the “Percent difference from control” value ([2]; 1.49 mM with hydrogen peroxide 11.7 mM, 37° C., 30 min, vs 4° C. control) of the same compound?
**A.** Its value is 74%.

**Q.** What about the “CL (30 s)” value ([2]; 1.49 mM, 45° C., 30 min) of the same compound?
**A.** The value was 550 ± 126 counts/30 s.

**Q.** And the “CL (counts/30 s)” value ([2]; 1.49 mM, preincubated at 4° C. for 72 h, RBCs 72 hours post collection)?
**A.** The value was 794 ± 156 counts/30 s.

**Q.** And the activation at 1490 µM ([2]; 0.5 h, 1.49 mM, 45° C., 30 min, vs 4° C. control)?
**A.** The activation at 1490 µM was 45%.

**Q.** What about the activation at 1490 µM ([2]; 72 h, 1.49 mM, preincubated at 4° C. for 72 h) of the same compound?
**A.** The activation at 1490 µM was -10%.

**Q.** And the inhibition at 1490 µM ([2]; 1.49 mM, hydrogen peroxide 11.7 mM, 37° C., read-out: inhibition of Lu-BSA binding induced by hydrogen peroxide)?
**A.** The inhibition at 1490 µM was 51%.

**Q.** And the inhibition at 1490 µM ([2]; RBCs stored at 4° C. in 1.49 mM for 72 hours, read-out: less Lu-BSA bound than RBCs stored in PBS)?
**A.** Its inhibition at 1490 µM is 10%.

**Q.** And the “protection from the effects of pyruvate (Lu-BSA binding), in words” value ([2]; cells preincubated in 1.49 mM, then pyruvate 1.33 mM)?
**A.** The value was “protected them from the effects of pyruvate”.

**Q.** What about the Ki [3] of the same compound?
**A.** The Ki was 5 µM.

**Q.** What about the “effect on T cell (spleen) peroxidase activity, in words” value [4] of the same compound?
**A.** The value was “inhibit”.
